{
  "source": "patent US20030134824A1",
  "about": "“Beta-cyclodextrin dimers and phthalocyanines and uses thereof” (priority 2001, published 2003)",
  "key": {"[1]": {"test": "Photochemical cleavage of the dimers by bound phthalocyanines, monitored by 1H NMR", "assay_type": "physicochemical", "conditions": "dimer 2.5 mM, photosensitizer 0.14 mM, 5% DMSO-d6 in D2O, O2, light >540 nm, 25° C.", "description": "All of the photocleavage reactions were carried out using the same apparatus, as described previously (U.S. Ser. No. 09/352,529, filed Jul. 13, 1999, now allowed; Ruebner et al. 1999). A halogen lamp (50 W) was set up with a 540 nm cut-off filter and a focusing lens. The NMR tube in which the reactions were run was placed in the most strongly focused area, and oxygen was bubbled continuously through the solution while the photocleavage reactions were run. To monitor the reactions, ^1H NMR's were taken at regular intervals, whereby the disappearance of the alkene peaks and the appearance of the single formyl peak could be observed.\nThe dimers were at a concentration of 2.5 mM while the photosensitizers were at 0.14 mM in 5% DMSO-d6 in D2O. Here dimer 21 was cleaved using phthalocyanine 11. It can clearly be seen that the amount of alkene (doublet at ˜6.2 ppm) decreases and the formyl peak (singlet at ˜8.4 ppm) appears as the reaction progresses, and that no other peaks are seen in this area. […]\nTo a solution of β-cyclodextrin dimer 17 (5.9 mg, 2.35×10^−6 mol) and potassium carbonate (2 mg) in D2O (1.00 mL) was added a 3 mM solution of phthalocyanine 6 (0.17 mg, 1.50×10^−7 mol) in DMSO-d6 (50 μL). […] The reaction was monitored by ^1H NMR, by observance of the disappearance of the alkene peaks and the appearance of the formyl peak. […]"}, "[2]": {"test": "Binding of BNS to β-cyclodextrin dimers by fluorescence titration", "conditions": "water, ca. 25° C.", "description": "Binding constants for a few of the possible pairs were determined by a fluorescence competition method previously used for cyclodextrin dimers, competing the substrate of interest with 2-(p-tert-butylanilino)naphthalene-6-sulfonic acid 22, (termed BNS, Breslow et al. 1989). [drawing 26]\nBNS is fluorescent when bound into a hydrophobic cavity such as that of a cyclodextrin, but only weakly fluorescent in water solution. Only the sulfonated phthalocyanines were soluble enough for this method.\nThe binding constant of BNS 22 to each dimer was determined as previously (Breslow et al. 1989, Ruebner et al. 1999) by titrating BNS into a dimer solution in a fluorescence cell, then exciting this solution at 330 nm and measuring the fluorescent emission at 438 nm. The binding constant of phthalocyanine to dimer was measured by titration of BNS into a 1:1 mixture of dimer and phthalocyanine. […] The binding constant of BNS to each dimer is given by K=intercept/slope, and the binding constant of the phthalocyanine can be calculated as KI=(K/K′−1)/[I], where K′ is the apparent binding constant of BNS to the dimer in presence of phthalocyanine, and [I] is the concentration of phthalocyanine (Ruebner et al. 1996). […]\nThe binding constant for BNS to cyclodextrin dimer 21 was determined by the fluorescence emission method. […] The area under the peak between 400 and 500 nm was measured for each addition. […]"}, "[3]": {"test": "Microcalorimetric titration with p-tert-butylbenzoic acid", "assay_type": "binding", "description": "β-cyclodextrin (CD) monomer 23 (6.4 mg, 0.005 mmol) was dissolved in 0.20 M pH 9.0 Na2CO3/NaHCO3 buffer (5.00 mL) to make a 1.0 mM solution. p-tert-Butylbenzoic acid (11.0 mg, 0.062 mmol) was dissolved in 6.16 mL of the same buffer to make a 10.0 mM solution. Both solutions were degassed under reduced pressure with a sonicator for 5 minutes immediately prior to the binding study. The β-CD monomer 23 solution (2.50 mL) was put into the sample cell compartment of an Omega microcalorimeter, whereas the p-tert-butyl-benzoic acid was loaded in a 250 μL syringe and then assembled onto the calorimeter. The system was equilibrated until RMS error was less than 5×10^−3 with the syringe spinning at 400 rpm. The p-tert-butylbenzoic acid solution was then injected into the cell in 25 injections (10 μL, 7 seconds per injection). […] Injection data were automatically collected by the computer, and the data was analyzed by ORIGIN software with the single-binding-site model. […]\nβ-Cyclodextrin (4.0 mg, 0.0035 mmol) was dissolved in 0.20 M pH 9.0 Na2CO3/NaHCO3 buffer (3.53 mL) to make a 1.0 mM solution. p-tert-butyl-benzoic acid (10.0 mg, 0.056 mmol) was dissolved in 5.60 mL of the same buffer to make a 10.0 mM solution. […] Injection data were automatically collected by the computer, and the data was analyzed by ORIGIN software with the single-binding-site model. […]"}},
  "data": [
    {"smiles": "CNC(=O)CCCS/C=C\\SCCCC(=O)NC", "note": "[Dimer 18]", "values": [
      {"measurement": "time for 50% cleavage of the dimer by phthalocyanine 6", "setting": "[1]", "result": 55, "unit": "min"},
      {"measurement": "time for 50% cleavage of the dimer by phthalocyanine 14", "setting": "[1]", "result": 6, "unit": "min"},
      {"measurement": "binding constant of BNS to the dimer", "setting": "[2]", "result": 418000, "unit": "M⁻¹"}
    ]},
    {"smiles": "OC[C@H]1O[C@@H]2O[C@H]3[C@H](O)[C@@H](O)[C@@H](O[C@H]4[C@H](O)[C@@H](O)[C@@H](O[C@H]5[C@H](O)[C@@H](O)[C@@H](O[C@H]6[C@H](O)[C@@H](O)[C@@H](O[C@H]7[C@H](O)[C@@H](O)[C@@H](O[C@H]8[C@H](O)[C@@H](O)[C@@H](O[C@H]1[C@H](O)[C@H]2O)O[C@@H]8CO)O[C@@H]7CO)O[C@@H]6CO)O[C@@H]5CO)O[C@@H]4CO)O[C@@H]3CO", "note": "[β-cyclodextrin]", "values": [
      {"measurement": "binding constant with 4-tert-butylbenzoic acid", "setting": "[3]", "result": "1.7×10^4 M^−"}
    ]}
  ]
}
